This note sets out measurements from ChEMBL document CHEMBL5291721, “A preclinical secondary pharmacology resource illuminates target-adverse drug reaction associations of marketed drugs” (Nat Commun, 2023).

Where a SMILES comes first, the peptide text is derived from it.

The target in one assay is Adenosine receptor A2a (Homo sapiens, UniProt P29274).
The target in assay [1] is T1, Amine oxidase [flavin-containing] A (Homo sapiens, UniProt P21397).
T1 sequence (P21397 whole entry): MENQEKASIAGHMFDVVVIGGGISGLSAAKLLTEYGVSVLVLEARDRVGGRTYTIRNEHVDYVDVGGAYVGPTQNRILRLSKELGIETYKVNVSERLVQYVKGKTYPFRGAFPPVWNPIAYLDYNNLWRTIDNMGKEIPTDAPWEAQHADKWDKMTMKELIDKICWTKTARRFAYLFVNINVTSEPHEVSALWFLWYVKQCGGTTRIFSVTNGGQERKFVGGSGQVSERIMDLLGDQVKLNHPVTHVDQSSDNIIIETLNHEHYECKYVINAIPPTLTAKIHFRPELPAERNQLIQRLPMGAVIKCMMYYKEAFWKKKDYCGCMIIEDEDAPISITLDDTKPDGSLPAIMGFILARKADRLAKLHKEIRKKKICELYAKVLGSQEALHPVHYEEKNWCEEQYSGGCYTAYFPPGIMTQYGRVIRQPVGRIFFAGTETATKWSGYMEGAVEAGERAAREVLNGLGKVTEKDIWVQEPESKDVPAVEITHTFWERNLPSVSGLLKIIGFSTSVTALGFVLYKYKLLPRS
The assay is classed as functional.

The target of assay [2] is T2, Alpha-2C adrenergic receptor (Homo sapiens, UniProt P18825).
T2 sequence (P18825 whole entry): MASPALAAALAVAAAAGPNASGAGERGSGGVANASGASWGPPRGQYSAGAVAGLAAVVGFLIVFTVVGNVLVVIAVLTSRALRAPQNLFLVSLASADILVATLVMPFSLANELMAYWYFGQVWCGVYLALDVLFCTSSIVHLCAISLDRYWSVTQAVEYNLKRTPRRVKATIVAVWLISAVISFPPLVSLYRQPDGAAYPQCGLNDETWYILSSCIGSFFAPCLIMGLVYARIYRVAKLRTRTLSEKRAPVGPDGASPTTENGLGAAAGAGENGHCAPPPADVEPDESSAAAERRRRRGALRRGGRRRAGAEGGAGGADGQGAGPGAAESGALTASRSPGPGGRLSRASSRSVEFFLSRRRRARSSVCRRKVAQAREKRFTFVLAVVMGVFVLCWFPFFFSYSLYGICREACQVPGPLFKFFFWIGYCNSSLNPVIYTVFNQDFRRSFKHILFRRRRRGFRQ
The assay is classed as functional.

For another assay, the target named is T3, Adenosine receptor A3 (Homo sapiens, UniProt P0DMS8).
T3 sequence (P0DMS8 whole entry): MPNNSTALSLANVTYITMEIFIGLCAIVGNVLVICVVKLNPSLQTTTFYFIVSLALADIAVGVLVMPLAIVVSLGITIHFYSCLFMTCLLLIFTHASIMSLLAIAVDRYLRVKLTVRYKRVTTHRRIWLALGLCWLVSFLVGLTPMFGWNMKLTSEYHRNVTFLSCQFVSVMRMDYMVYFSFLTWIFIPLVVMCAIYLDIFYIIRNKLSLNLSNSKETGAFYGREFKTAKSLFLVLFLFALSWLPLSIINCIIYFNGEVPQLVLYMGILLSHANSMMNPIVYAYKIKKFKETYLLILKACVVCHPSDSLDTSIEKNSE

Assay [3] addresses Muscarinic acetylcholine receptor M3 (Homo sapiens, UniProt P20309).
Assay [4] deals with T4, Cholecystokinin receptor type A (Homo sapiens, UniProt P32238).
T4 sequence (P32238 whole entry): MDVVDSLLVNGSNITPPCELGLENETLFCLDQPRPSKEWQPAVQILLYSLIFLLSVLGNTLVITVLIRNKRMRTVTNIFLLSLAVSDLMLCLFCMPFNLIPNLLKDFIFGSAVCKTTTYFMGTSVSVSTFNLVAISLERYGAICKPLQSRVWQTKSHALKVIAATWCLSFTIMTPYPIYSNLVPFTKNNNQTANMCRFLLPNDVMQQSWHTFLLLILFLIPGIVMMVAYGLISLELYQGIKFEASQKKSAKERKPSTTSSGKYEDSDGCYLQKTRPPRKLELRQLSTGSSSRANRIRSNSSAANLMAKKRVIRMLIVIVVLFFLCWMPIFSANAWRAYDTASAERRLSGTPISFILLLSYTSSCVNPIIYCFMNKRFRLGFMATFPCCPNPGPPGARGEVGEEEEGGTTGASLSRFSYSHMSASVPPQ

The next assay has as its target Melanocortin receptor 3 (Homo sapiens, UniProt P41968).
Assay [5] deals with 5-hydroxytryptamine receptor 2A (Homo sapiens, UniProt P28223). The assay is classed as functional, cell-based.
For the next assay, the target named is Cannabinoid receptor 1 (Homo sapiens, UniProt P21554). The assay is classed as functional, cell-based.
Assay [6] concerns the target T5, 5-hydroxytryptamine receptor 1A (Homo sapiens, UniProt P08908).
T5 sequence (P08908 whole entry): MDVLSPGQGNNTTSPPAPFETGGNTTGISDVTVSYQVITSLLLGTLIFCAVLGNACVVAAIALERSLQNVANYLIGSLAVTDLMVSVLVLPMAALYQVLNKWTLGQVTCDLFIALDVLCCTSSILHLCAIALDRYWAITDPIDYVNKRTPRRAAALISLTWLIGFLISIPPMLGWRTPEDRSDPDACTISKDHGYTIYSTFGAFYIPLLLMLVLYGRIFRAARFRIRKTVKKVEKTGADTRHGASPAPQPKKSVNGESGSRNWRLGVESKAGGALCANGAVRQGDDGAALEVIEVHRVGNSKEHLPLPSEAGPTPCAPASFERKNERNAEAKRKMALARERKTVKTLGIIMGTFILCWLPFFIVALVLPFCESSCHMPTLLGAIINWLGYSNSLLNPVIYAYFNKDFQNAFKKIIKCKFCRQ
The assay is classed as functional, cell-based.
Further: assay procedure not described here.

Sequence of Adenosine receptor A2a (P29274 whole entry): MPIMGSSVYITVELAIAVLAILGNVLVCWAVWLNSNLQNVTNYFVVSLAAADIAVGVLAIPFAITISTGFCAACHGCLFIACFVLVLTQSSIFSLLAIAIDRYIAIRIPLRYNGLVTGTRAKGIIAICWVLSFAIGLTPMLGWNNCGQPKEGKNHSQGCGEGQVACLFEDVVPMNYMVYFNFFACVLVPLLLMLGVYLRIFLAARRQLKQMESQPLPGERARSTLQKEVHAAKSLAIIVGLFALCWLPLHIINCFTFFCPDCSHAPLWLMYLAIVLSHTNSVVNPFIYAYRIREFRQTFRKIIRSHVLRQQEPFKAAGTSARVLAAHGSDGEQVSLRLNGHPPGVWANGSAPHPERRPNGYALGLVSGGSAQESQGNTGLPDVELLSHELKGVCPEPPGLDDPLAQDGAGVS
Sequence of Muscarinic acetylcholine receptor M3 (P20309 whole entry): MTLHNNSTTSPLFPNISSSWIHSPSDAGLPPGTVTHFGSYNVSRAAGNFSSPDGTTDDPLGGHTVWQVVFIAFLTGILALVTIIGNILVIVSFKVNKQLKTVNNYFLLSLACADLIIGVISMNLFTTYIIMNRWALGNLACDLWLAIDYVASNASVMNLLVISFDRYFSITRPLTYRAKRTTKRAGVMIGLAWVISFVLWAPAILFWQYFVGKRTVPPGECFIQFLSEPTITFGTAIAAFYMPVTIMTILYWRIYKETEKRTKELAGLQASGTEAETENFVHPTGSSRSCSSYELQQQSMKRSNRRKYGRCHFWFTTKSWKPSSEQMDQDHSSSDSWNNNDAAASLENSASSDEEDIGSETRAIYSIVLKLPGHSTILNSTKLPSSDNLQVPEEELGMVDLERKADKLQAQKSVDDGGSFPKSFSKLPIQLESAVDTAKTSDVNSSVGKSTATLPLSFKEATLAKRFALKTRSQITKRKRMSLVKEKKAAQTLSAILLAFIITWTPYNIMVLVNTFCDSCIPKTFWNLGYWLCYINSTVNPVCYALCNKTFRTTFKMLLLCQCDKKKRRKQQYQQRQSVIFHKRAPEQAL
Sequence of Melanocortin receptor 3 (P41968 whole entry): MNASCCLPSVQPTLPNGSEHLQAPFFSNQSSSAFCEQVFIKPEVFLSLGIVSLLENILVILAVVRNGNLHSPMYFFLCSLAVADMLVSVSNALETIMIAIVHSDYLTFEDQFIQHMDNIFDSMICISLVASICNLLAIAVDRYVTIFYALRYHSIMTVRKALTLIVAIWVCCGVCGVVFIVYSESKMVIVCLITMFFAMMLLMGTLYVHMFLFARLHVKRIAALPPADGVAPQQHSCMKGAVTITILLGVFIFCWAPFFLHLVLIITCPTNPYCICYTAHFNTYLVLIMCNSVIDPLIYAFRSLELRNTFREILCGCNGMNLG
Sequence of Cannabinoid receptor 1 (P21554 whole entry): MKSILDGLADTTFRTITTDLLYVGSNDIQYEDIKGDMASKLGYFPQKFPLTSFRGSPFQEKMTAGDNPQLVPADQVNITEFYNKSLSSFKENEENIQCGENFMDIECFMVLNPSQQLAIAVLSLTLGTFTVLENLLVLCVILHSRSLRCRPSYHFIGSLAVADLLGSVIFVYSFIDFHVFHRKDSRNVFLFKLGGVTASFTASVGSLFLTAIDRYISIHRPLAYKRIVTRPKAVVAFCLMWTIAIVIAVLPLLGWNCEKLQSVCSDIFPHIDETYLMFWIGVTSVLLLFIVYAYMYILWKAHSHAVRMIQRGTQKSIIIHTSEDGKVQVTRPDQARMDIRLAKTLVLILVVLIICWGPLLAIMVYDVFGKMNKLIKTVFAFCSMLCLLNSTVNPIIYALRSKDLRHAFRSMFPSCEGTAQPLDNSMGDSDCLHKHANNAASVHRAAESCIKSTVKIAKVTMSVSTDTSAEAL
Sequence of 5-hydroxytryptamine receptor 2A (P28223 whole entry): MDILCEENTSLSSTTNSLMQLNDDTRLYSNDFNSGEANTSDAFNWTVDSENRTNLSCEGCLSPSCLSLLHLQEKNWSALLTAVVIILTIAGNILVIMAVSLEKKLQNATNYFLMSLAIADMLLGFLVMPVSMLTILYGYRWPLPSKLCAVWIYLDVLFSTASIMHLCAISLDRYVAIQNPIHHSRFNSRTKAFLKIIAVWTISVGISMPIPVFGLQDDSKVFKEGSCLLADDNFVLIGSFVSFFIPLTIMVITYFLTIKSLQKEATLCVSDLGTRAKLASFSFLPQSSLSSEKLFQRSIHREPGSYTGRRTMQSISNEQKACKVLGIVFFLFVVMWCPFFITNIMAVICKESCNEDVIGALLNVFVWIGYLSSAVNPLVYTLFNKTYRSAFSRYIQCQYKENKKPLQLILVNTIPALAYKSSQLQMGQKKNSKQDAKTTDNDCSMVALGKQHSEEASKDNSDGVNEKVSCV

As to `O=C(O)c1ccc2nc(-c3cc(Cl)cc(Cl)c3)oc2c1`, the AC50 (usually the concentration at which the activity in the assay is half-maximal) on Adenosine receptor A2a was > 30 µM; in [1], 18 µM; in assay [2], > 30 µM; at Adenosine receptor A3, > 30 µM; in [3], > 30 µM; in assay [4], > 30 µM. For the same compound, the concentration at half-maximal activity (AC50) (at Melanocortin receptor 3; in assay [5]) was > 30 µM in each case.

Regarding `O=C(O[C@H]1C[N+]2(CCCOc3ccccc3)CCC1CC2)C(O)(c1cccs1)c1cccs1` [ACLIDINIUM BROMIDE], the AC50 was > 30 µM on Adenosine receptor A2a; > 10 µM in assay [1]; 2.5 µM in assay [2]; > 30 µM at Adenosine receptor A3; > 30 µM in assay [4]; > 30 µM at Melanocortin receptor 3.

With `C[C@H](N)C(=O)N[C@@H](CCC(N)=O)C(=O)O` [ALANYL GLUTAMINE] (H-Ala-Gln-OH), the AC50 was > 30 µM on Adenosine receptor A2a; > 30 µM on Cannabinoid receptor 1; 15 µM in assay [1]; > 30 µM in assay [2]; > 30 µM on Adenosine receptor A3; > 30 µM in assay [3]. In addition, the half-maximal activity concentration (AC50) (in [4]; at Melanocortin receptor 3; in [5]) was > 30 µM in each case.

On to `COc1ccc(-n2nc(C(N)=O)c3c2C(=O)N(c2ccc(N4CCCCC4=O)cc2)CC3)cc1` [APIXABAN], for which the AC50 (on Adenosine receptor A2a; at Cannabinoid receptor 1; in assay [1]; in assay [2]; on Adenosine receptor A3; in assay [3]) was > 30 µM in each case. The AC50 (in assay [4]; on Melanocortin receptor 3; in assay [5]) was > 30 µM each time.

In the case of `CNCCc1ccccn1` [BETAHISTINE], the concentration at half-maximal activity (AC50) (on Adenosine receptor A2a; at Cannabinoid receptor 1; in assay [1]; in assay [2]; on Adenosine receptor A3; in assay [4]) was > 30 µM in each case. Further, the concentration at half-maximal activity (AC50) (on Melanocortin receptor 3; in assay [6]) was > 30 µM throughout.

Turning to `O=C(O)CCCC[C@@H]1SC[C@@H]2NC(=O)N[C@@H]21` [BIOTIN], the AC50 on Adenosine receptor A2a was > 10 µM; in assay [1] it was > 10 µM; in [2], > 10 µM; on Adenosine receptor A3, > 10 µM; in assay [3], > 30 µM; in assay [4], > 10 µM. Moreover, the half-maximal activity concentration (AC50) (on Melanocortin receptor 3; in assay [6]) was > 10 µM each time.

As to `CC(NC(C)(C)C)C(=O)c1cccc(Cl)c1` (centres undefined) [BUPROPION], the half-maximal activity concentration (AC50) was > 30 µM at Adenosine receptor A2a; > 30 µM at Cannabinoid receptor 1; > 10 µM in assay [1]; > 10 µM in [2]; > 30 µM at Adenosine receptor A3; > 30 µM in assay [4]. The AC50 is > 30 µM at Melanocortin receptor 3 and > 10 µM in assay [6].

Take `CCCCOC(=O)c1ccc(N)cc1` [BUTAMBEN]: the half-maximal activity concentration (AC50) (at Adenosine receptor A2a; at Cannabinoid receptor 1; in [1]; in assay [2]; at Adenosine receptor A3; in assay [4]) was > 30 µM throughout. Moreover, the AC50 (on Melanocortin receptor 3; in assay [6]) was > 30 µM in each case.

`CO/N=C(\C(=O)N[C@@H]1C(=O)N2C(C(=O)O)=C(CSc3nc(C)c(CC(=O)O)s3)CS[C@H]12)c1csc(N)n1` [CEFODIZIME]: the AC50 (at Adenosine receptor A2a; at Cannabinoid receptor 1; in assay [1]; in [2]; at Adenosine receptor A3; in [3]) was > 30 µM in each case. The AC50 (in assay [4]; at Melanocortin receptor 3; in assay [5]) was > 30 µM each time.

With `CO/N=C(\C(=O)N[C@@H]1C(=O)N2C(C(=O)[O-])=C(C[n+]3ccc(N)n3CCO)CS[C@H]12)c1csc(N)n1` [CEFOSELIS], the AC50 (at Adenosine receptor A2a; at Cannabinoid receptor 1; in assay [1]; in [2]; on Adenosine receptor A3; in assay [3]) was > 30 µM in each case. The AC50 (in assay [4]; on Melanocortin receptor 3; in assay [5]) was > 30 µM each time.

For the compound `CC1=C(C(=O)O)N2C(=O)[C@@H](NC(=O)[C@H](N)C3=CCC=CC3)[C@H]2SC1` [CEPHRADINE], the AC50 on Adenosine receptor A2a was > 30 µM; at Cannabinoid receptor 1 it was > 30 µM; in assay [1] it was > 30 µM; in assay [2], > 30 µM; at Adenosine receptor A3, 27 µM; in assay [3] it was > 30 µM. In addition, the AC50 (in [4]; at Melanocortin receptor 3; in assay [5]) was > 30 µM each time.

As for `CCCCCCOC(=O)NC(=N)c1ccc(NCc2nc3cc(C(=O)N(CCC(=O)OCC)c4ccccn4)ccc3n2C)cc1` [DABIGATRAN ETEXILATE], the half-maximal activity concentration (AC50) on Adenosine receptor A2a was > 30 µM; in assay [1] it was > 30 µM; in assay [2] it was > 30 µM; on Adenosine receptor A3, 11 µM; in assay [3] it was > 30 µM; in assay [4], > 30 µM. Further, the AC50 (at Melanocortin receptor 3; in assay [5]) was > 30 µM each time.

Consider `CC(=O)Oc1cccc2c1C(=O)c1c(OC(C)=O)cc(C(=O)O)cc1C2=O` [DIACEREIN], for which the AC50 at Adenosine receptor A2a was 24 µM; on Cannabinoid receptor 1 it was > 30 µM; in assay [1], > 30 µM; in assay [2], > 30 µM; on Adenosine receptor A3 it was 17 µM; in assay [3], > 30 µM. Also, the half-maximal activity concentration (AC50) (in [4]; at Melanocortin receptor 3; in assay [5]) was > 30 µM each time.

As to `CC(=O)OCC(=O)[C@@]1(O)CC[C@H]2[C@@H]3CCC4=CC(=O)CC[C@]4(C)[C@@]3(F)[C@@H](O)C[C@@]21C` [FLUDROCORTISONE ACETATE], the AC50 (at Adenosine receptor A2a; on Cannabinoid receptor 1; in assay [2]; at Adenosine receptor A3; in assay [4]; at Melanocortin receptor 3) was > 30 µM each time. For the same compound, in assay [6], the concentration at half-maximal activity (AC50) was > 30 µM.

On to `CCN(CC)CC(=O)Nc1c(C)cccc1C` [LIDOCAINE], for which the concentration at half-maximal activity (AC50) at Adenosine receptor A2a is > 30 µM; at Adenosine receptor A3 it was > 30 µM; in [4], > 30 µM; at Melanocortin receptor 3 it was 23 µM.
